Assay results reported in US20260069629A1, “RECEPTACLE, DEVICE FOR RELEASING CARBON MONOXIDE, TREATMENT SYSTEM, SET FOR TREATING LIVING CELLS, METHOD OF TREATING A MAMMAL, AND CARBON MONOXIDE” (Julius-Maximilians-Universität Würzburg, in Vertretung des …, priority 2022, published 2026).

Assays:
human semen/spermatozoa [1] = assay: Static oxidation-reduction potential (sORP) of spermatozoa incubated with/without CO, MiOXSYS (Example 1); type: cell-based; conditions: two-compartment capsule, 15 mg Mo-CORM, 90 minutes at 25-35° C.; vs samples not contacted with CO (woCO=1); FIG. 10
Experimental: (§1) In this example, the capsule (18-22 mm in length and 6-8 mm diameter) loaded with 15 mg of CO-releasing molecules (Mo-CORM) and 150 μl of an aqueous FeCl3 solution (583.3 mg/ml) was used for the preservation of a 0.7 mL to about 2.9 mL sample in a standard 15 mL Falcon tube.
(§2) Between 1.46 mL and 5.7 mL human semen/spermatozoa were collected from healthy males of between 25 and 50 years of age in 100 mL sample vials on site. Samples were then divided into two equal fractions each for subsequent incubation with CO (wCO) and without CO (woCO). In order to estimate the spermatozoa concentration in the samples and to establish an initial baseline for each sample, a routine spermiogram was performed before samples were transferred to gas-tight 15 mL Falcon tubes. Samples were incubated at 25-35° C. for 90 minutes with and without an activated capsule system in a closed container. During this incubation period liquefaction took place naturally. The samples were then analyzed for total motility, progressive motility, static oxidation-reduction potential, and for DNA fragmentation.
A Male Infertility Oxidative System (MiOXSYS, Englewood, CO) was used to determine static oxidation-reduction potential (sORP) levels. 30 μL of the sperm samples were transferred to the sample application port on a MiOXSYS sensor and analyzed for 2 minutes. […]

human semen/spermatozoa [2] = assay: Progressive motility of spermatozoa incubated with/without CO, CASA (Example 1); type: cell-based; conditions: two-compartment capsule, 15 mg Mo-CORM, 90 minutes; vs spermatozoa not contacted with CO
Experimental: as §1
as §2, with “Samples were incubated at 25-35° C. for 90 minutes with and without an activated capsule system in a closed container. During this incubation period liquefaction took place naturally.” left out
Total motility, progressive motility and concentration of the samples were assessed using a CEROS II (Hamilton Thorne, Beverly, MA) computer assisted sperm analysis (CASA) system. 6 μL of a sperm sample diluted 1:1 with Multipurpose Handling Medium-Complete (MHM-C, FujiFilm/IrvineScientific, Santa Ana, CA) was measured and the concentration and level of mobility (total and progressive motility) was assessed.

Human sperm = assay: Static oxidation-reduction potential (sORP) of sperm treated with single-chamber receptacles, MiOXSYS (Example 2); type: cell-based; conditions: vs untreated, results expressed in mV/10^6 sperm/mL, FIG. 12
Experimental: Example 2 illustrates the improvement of spermatozoan viability parameters (namely, oxidation-reduction potential) in response to different carbon monoxide (CO) incubation durations. Sperm form the same subject was either treated with carbon monoxide or left untreated, as “untreated” control. Treatments with CO varied in duration (60, 90, 180, or 270 min).
In this example, sperm samples were treated with either one, three, or six receptacles/capsules, each loaded with 5 mg Mo-CORM (corresponds to 0.44 mL CO) for 60 to 270 mins, or left untreated for the same amount of time.
Human sperm was collected from healthy volunteers in 100 mL specimen containers. Afterwards, the ejaculate was split into equal parts and filled into 15 mL gas tight falcon tubes, with one of the samples being exposed to one or more activated receptacles/capsules. Then, both samples were analyzed for static oxidation-reduction potential (sORP) via MiOXSYS after a predetermined time.
An oxidative male infertility measuring System (MiOXSYS, Englewood, CO) was used to determine static oxidation-reduction potential (sORP) levels following manufacturer's specifications. 30 μL of sample were transferred to the sample application port onto a MiOXSYS sensor and analyzed for 2 minutes. The results were expressed in milli Volt (mV) and normalized to the seminal sperm concentration (mV/10^6 sperm/mL).

human semen/spermatozoa [3] = assay: DNA fragmentation of spermatozoa incubated with/without CO, Halo Sperm G2 Kit (Example 1); type: cell-based; conditions: two-compartment capsule, 15 mg Mo-CORM, 90 minutes at 25-35° C.; vs samples not contacted with CO (woCO=1); FIG. 11
Experimental: as §1
as §2, with “During this incubation period liquefaction took place naturally.” left out
To determine DNA fragmentation a count-based microscopy assay was performed. For this spermatozoa samples were diluted using MHM-C (Multipurpose Handling Medium-Complete, FujiFilm, IrvineScientific) to a maximum of 20×E6 spermatozoa per mL and analyzed using a Halo Sperm G2 Kit (Halotech, Madrid, Spain). […] At least 300 spermatozoa were then analyzed using a bright field microscope. […]

[4] = Carbon monoxide release from the receptacle after combining main substance and activation substance; type: physicochemical
Experimental: Carbon monoxide (CO) release was 1.30 mL, 0.95 mL, 0.44 mL, and 0.23 mL corresponding to 15 mg, 10 mg, 5 mg, and 2.5 mg of the main substance 42 (“Mo-CORM”), respectively.
Carbon monoxide (CO) release ranged from 0.95 mL to 0.34 mL corresponding to 50 μL to 10 μL of the activation substance 44 (“FeCl”), respectively.

Compound | Relative oxidation-reduction-potential (sORP wCO / sORP woCO) (human semen/spermatozoa [1]) | progressive motility of spermatozoa (human semen/spermatozoa [2]) | oxidation-reduction potential (sORP) of treated gametes (Human sperm; subject 38_7, contacted with carbon monoxide for 60 min) | oxidation-reduction potential (sORP) of treated gametes (Human sperm; subject 42_1, contacted with carbon monoxide for 90 min) | Relative DNA fragmentation (wCO / woCO) (human semen/spermatozoa [3]) | released amount/volume of carbon monoxide (CO) from the receptacle ([4]; 2.5 mg of the main substance (Mo-CORM), FIG. 9A) [mL] | released amount/volume of carbon monoxide (CO) from the receptacle ([4]; 5 mg of the main substance (Mo-CORM), FIG. 9A) [mL] | released amount/volume of carbon monoxide (CO) from the receptacle ([4]; 10 mg of the main substance (Mo-CORM), FIG. 9A) [mL] | released amount/volume of carbon monoxide (CO) from the receptacle ([4]; 15 mg of the main substance (Mo-CORM), FIG. 9A) [mL] | released amount/volume of carbon monoxide (CO) from the receptacle ([4]; 10 μL of the activation substance (FeCl), FIG. 9B) [mL] | released amount/volume of carbon monoxide (CO) from the receptacle ([4]; 50 μL of the activation substance (FeCl), FIG. 9B) [mL]
[C-]#[O+] [CO, carbon monoxide] | trend to be lower | improvement | drastic reduction | drastic reduction | reduced | – | – | – | – | – | –
trisodiumtricarbonyl-[tris(isocyanoethylacetate)]molybdenum [Mo-CORM] | – | – | – | – | – | 0.23 | 0.44 | 0.95 | 1.30 | 0.34 | 0.95
